Experimental data: ChEMBL document CHEMBL1122435, “Pyrrolopyrimidine nucleosides. 18. Synthesis and chemotherapeutic activity of 4-amino-7-(3-deoxy-beta-D-ribofuranosyl)pyrrolo[2,3-d] pyrimidine-5-carboxamide (3'-deoxysangivamycin) and 4-amino-7-(2-deoxy-beta-D-ribofuranosyl)pyrrolo[2,3-d] pyrimidine-5-carboxamide (2'-deoxysangivamycin)” (1983)

Key:
L1210 [1] = experiment: Increase in life span for drug treated L1210-bearing mice at the dose of 128 mg/kg upon intraperitoneal administration; format: functional; conditions: Mus musculus, L1210, ip
L1210 [2] = experiment: Occurrence of drug-induced shortening of life span resulting from treatment at 0.25 mg/kg dose in L1210-bearing mice; y=yes; format: functional, organism-based; set-up: dose 0.25 mg/kg; conditions: Mus musculus
L1210 [3] = experiment: Increase in life span for drug treated L1210-bearing mice at the dose of 0.25 mg/kg upon intraperitoneal administration; format: functional; conditions: Mus musculus, L1210, ip
L1210 [4] = experiment: Increase in life span for drug treated L1210-bearing mice at the dose of 100 mg/kg upon intraperitoneal administration; format: functional; conditions: Mus musculus, L1210, ip
L1210 [5] = experiment: Occurrence of drug-induced shortening of life span resulting from treatment at 100 mg/kg dose in L1210-bearing mice; y=yes; format: functional, organism-based; set-up: dose 100 mg/kg; conditions: Mus musculus
L1210 [6] = experiment: Increase in life span for drug treated L1210-bearing mice at the dose of 160 mg/kg upon intraperitoneal administration; format: functional; conditions: Mus musculus, L1210, ip

With `NC(=O)c1cn(C2OC(CO)CC2O)c2ncnc(N)c12` (stereo unspecified) the ILS at 128 mg/kg (L1210 [1]) was 128%.

`NC(=O)c1cn([C@@H]2O[C@H](CO)[C@@H](O)[C@H]2O)c2ncnc(N)c12` [SANGIVAMYCIN] was tested, and the Toxicity (L1210 [2]) was “Yes” and the ILS at 0.25 mg/kg (L1210 [3]) was 37%.

`C[C@H]1OC(n2cc(C(N)=O)c3c(N)ncnc32)[C@H](O)[C@@H]1O` (stereo partly specified) was tested, and the ILS at 100 mg/kg (L1210 [4]) was 5% and the Toxicity (L1210 [5]) was “Yes”.

`NC(=O)c1cn([C@H]2C[C@H](O)[C@@H](CO)O2)c2ncnc(N)c12` gave an ILS at 160 mg/kg (L1210 [6]) of 4%.
